A short description of data set [1]: Pharmacokinetic study, IP 10 mg/kg, plasma and brain. Format: in vivo, rat. The conditions noted are these: rats.
The test system of another data set is HEPG2 (liver) cells. Put plainly: Cytotoxicity assay. Format: cell-based, human. The conditions noted are these: HEPG2, up to 400 μM, 48 hours.
The target in data set [2] is T1, GABAAR α6β3γ2 subtype (Rattus norvegicus, UniProt P18508+P30191+P63079). Put plainly: Electrophysiological assay in Xenopus oocytes, modulation of GABA EC3 currents. Format: cell-based.
For the next data set, the system named is α1-5β3γ2 receptors. Description: Electrophysiological assay in Xenopus oocytes, other receptor subtypes. It is filed as cell-based. The conditions noted are these: two-point experiments.
The subject of another data set is HEK293 (kidney) cells. Description: Cytotoxicity assay. The following applies: HEK293, up to 400 μM, 48 hours. It is filed as cell-based, human.
Data set [3] has as its system Female Swiss Webster mice. The conditions noted are these: 5 mg/kg positive control.
In another data set the target is Dopamine D5 (Homo sapiens, UniProt P21918). Put plainly: PDSP radioligand displacement, [3H]SCH233930. Format: binding. The following applies: [3H]SCH233930, PDSP primary assay. Background: Loss of bound radioactivity is the signal in a displacement assay; it reports binding, not function.
The next data set deals with C57BL/6 mice. Description: Spontaneous locomotor activity assay in mice. Format: in vivo, mouse. The conditions noted are these: for Hyperlocomotor action: IP 3, 10 and 30 mg/kg.
Data set [4] in a line: Microsomal stability assay, mouse liver microsomes. It is filed as in vitro ADME. The following applies: vs respective parent (8a, 8i, 8n or 8k).
For another data set, the system named is rats. Put plainly: Rotarod pilot experiment in rats. The following applies: IP doses as high as 55 mg/kg. Format: in vivo, rat. A general note: Falling from the rotarod earlier than controls is read as motor impairment.
A further data set deals with adult male Wistar rats. Description: Spontaneous locomotor activity assay in rats. It is filed as in vivo, rat.
A short description of data set [5]: Microsomal stability assay, human liver microsomes. The following applies: vs respective parent (8a, 8i, 8n or 8k). Format: in vitro ADME.
The target in a further data set is DOR (Homo sapiens, UniProt P41143). Description: PDSP radioligand displacement, [3H]DADLE. The conditions noted are these: PDSP primary assay. Format: binding.
For a further data set, the target named is T2, Muscarinic M4 (Homo sapiens, UniProt P08173).
T2 sequence (P08173 1-479): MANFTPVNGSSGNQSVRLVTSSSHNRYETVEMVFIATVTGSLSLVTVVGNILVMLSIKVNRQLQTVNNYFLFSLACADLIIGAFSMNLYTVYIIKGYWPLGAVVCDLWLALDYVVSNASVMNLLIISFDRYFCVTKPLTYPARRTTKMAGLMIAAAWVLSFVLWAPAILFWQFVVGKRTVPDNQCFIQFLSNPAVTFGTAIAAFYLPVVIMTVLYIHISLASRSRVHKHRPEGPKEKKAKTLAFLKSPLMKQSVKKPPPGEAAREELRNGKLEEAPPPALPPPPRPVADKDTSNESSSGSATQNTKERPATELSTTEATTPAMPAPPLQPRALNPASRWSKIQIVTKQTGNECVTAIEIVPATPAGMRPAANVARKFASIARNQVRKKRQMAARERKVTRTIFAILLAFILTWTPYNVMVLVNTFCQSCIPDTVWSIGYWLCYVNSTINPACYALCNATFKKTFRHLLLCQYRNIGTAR
It is filed as binding.

A further data set in a line: Solubility assay. Format: physicochemical. The conditions noted are these: vs parent ligand 8a.
Data set [6] deals with T1, GABAAR α6β3γ2 subtype. The following applies: at 10 μM; cited from earlier work.

The values that follow come from paper PMC6941172 (Journal of medicinal chemistry, 2018).

The structures appear in SMILES notation.

T1 sequence (P30191 20-453): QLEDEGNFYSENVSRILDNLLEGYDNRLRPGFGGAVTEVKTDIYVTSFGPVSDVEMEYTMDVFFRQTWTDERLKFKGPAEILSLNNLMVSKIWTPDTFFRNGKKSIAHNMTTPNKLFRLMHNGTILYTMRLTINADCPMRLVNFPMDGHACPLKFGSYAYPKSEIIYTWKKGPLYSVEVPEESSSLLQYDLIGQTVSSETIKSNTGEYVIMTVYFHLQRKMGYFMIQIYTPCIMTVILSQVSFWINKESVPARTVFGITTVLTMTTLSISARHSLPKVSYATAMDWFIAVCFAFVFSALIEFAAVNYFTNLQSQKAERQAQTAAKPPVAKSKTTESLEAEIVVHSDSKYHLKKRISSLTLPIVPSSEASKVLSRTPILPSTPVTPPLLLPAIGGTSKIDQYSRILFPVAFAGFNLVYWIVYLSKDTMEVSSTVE
T1 sequence (P63079 26-473): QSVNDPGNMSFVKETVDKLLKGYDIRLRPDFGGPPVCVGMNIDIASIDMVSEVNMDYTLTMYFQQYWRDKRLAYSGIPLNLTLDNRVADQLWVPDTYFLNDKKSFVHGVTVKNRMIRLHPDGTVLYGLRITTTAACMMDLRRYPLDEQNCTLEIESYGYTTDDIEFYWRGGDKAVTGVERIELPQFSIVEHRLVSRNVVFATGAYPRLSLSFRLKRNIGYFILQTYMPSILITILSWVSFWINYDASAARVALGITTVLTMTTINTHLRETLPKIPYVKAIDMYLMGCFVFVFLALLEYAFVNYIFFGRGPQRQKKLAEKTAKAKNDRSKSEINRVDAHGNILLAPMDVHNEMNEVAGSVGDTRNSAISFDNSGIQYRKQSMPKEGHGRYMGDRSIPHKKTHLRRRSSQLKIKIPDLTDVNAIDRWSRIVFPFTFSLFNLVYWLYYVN
T1 sequence (P18508 39-466): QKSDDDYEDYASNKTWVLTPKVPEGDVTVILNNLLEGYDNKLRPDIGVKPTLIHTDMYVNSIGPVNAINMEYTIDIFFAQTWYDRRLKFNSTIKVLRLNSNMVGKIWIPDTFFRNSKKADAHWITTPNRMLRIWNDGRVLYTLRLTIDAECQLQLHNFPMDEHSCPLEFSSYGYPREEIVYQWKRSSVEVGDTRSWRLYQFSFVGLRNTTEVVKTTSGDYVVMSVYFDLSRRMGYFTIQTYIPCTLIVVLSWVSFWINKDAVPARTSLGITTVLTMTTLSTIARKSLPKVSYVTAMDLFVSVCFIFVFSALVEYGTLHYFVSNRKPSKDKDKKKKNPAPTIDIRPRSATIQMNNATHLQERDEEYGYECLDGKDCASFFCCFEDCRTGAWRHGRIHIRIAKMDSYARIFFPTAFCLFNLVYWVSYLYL
DOR, sequence (P41143 whole entry): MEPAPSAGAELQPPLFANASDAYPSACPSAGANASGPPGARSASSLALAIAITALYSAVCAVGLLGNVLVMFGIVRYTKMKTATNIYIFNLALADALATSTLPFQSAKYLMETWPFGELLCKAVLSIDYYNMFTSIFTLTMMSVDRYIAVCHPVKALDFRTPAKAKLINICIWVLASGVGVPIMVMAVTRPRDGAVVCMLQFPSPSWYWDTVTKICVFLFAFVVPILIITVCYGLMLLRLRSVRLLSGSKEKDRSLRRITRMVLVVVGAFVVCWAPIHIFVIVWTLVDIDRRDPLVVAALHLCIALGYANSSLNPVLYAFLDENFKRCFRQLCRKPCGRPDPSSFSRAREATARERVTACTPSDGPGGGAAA
Dopamine D5, sequence (P21918 whole entry): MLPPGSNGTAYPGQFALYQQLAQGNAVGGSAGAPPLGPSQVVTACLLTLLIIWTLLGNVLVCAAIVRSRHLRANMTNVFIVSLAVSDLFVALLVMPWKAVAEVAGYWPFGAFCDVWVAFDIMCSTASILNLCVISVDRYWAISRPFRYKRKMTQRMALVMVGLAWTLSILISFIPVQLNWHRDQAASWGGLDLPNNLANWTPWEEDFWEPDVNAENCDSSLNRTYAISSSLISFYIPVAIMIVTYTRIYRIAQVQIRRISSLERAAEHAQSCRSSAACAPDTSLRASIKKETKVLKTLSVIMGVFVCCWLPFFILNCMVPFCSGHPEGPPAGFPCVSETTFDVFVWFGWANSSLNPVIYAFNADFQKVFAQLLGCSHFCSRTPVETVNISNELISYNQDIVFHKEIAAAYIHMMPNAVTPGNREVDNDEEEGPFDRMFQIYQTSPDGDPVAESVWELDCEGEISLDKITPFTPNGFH

Turning to `[2H]C([2H])([2H])Oc1ccc2c3nn(-c4ccc(OC)nc4)c(=O)c-3c[nH]c2c1` [Compound 13c, 7-Methoxy-d3-2-(6-methoxypyridin-3-yl)-2,5-dihydro-3H-pyrazolo[4,3-c]quinolin-3-one], in data set [1], the “Brain AUC0-12 as % of that obtained with 8b” value worked out at 45%, the “Brain AUC0-12 as % of that obtained with 8c” value came out at 36%, the “Brain AUC0-12 as % of that obtained with 8d” value worked out at 55% and the “Brain concentration (Cmax) compared with parent 8a” value is listed as “considerably less”. Also, the “Cytotoxicity / cell viability” value in the data set on HEPG2 (liver) cells was “no impact of cell viability”. Also, the “Efficacy / activity at the α6β3γ2 subtype (in words)” value at GABAAR α6β3γ2 subtype [2] was “retained some efficacy”. The “Activity at α1-5β3γ2 receptors” value in the data set on α1-5β3γ2 receptors was “lack of activity”. In addition, the “Cytotoxicity / cell viability” value in the data set on HEK293 (kidney) cells is listed as “no impact of cell viability”.

With `CN1C(=O)CN=C(c2ccccc2)c2cc(Cl)ccc21` [diazepam], the Rotarod motor impairment entry in [3] is on record as “greatest impairment of sensorimotor steadiness at 10 minutes”.

On to `COc1ccc(-n2nc3c4ccc(OC)cc4[nH]cc-3c2=O)cc1` [Compound 8a, 7-Methoxy-2-(4-methoxyphenyl)-2,5-dihydro-3H-pyrazolo[4,3-c]quinolin-3-one], for which the “Activity at Dopamine D5” value on Dopamine D5 is given as “showed activity”. Further, the Hyperlocomotor action result in the data set on C57BL/6 mice is on record as “induced a hyperlocomotor action”.

As to `[2H]C([2H])([2H])Oc1ccc(-n2nc3c4ccc(OC)cc4[nH]cc-3c2=O)cc1` [Compound 8b, 7-Methoxy-2-(4-methoxy-d3-phenyl)-2,5-dihydro-3H-pyrazolo[4,3-c]quinolin-3-one], in data set [1], the “Brain concentration (Cmax) compared with parent 8a” value is “almost two-fold increase”. In addition, in [1], the “Free (unbound) brain concentrations” value was around 100 nM. Also, the “Increase in half-life (MLM) relative to parent ligand” value in [4] is “three-fold”. For the same compound, in the data set with C57BL/6 mice (IP 10 mg/kg with diazepam 3 mg/kg IP), the “Hyperlocomotor effect in combination with diazepam” value was “present”. Besides, the Hyperlocomotor action result with C57BL/6 mice is given as “induced a hyperlocomotor action”. Moreover, the “Motor coordination and balance on the rotarod” value in the data set on rats is “retained”. Moreover, the Hyperlocomotor response entry was “induced a hyperlocomotor response” with adult male Wistar rats (IP 10 mg/kg, first experiment (Figure 11A)); “did not reach statistical significance” in the data set on adult male Wistar rats (IP 10 mg/kg, repeated experiment (Figure 11C)); “present” with adult male Wistar rats (IP 3 and 10 mg/kg, third experiment (Figure 11E)). Also, in data set [5], the “Increase in half-life (HLM) relative to parent ligand” value amounted to 2.5 fold.

`[2H]C([2H])([2H])Oc1ccc(-n2nc3c4cc(Cl)ccc4[nH]cc-3c2=O)cc1` [Compound 8l, 8-Chloro-2-(4-methoxy-d3-phenyl)-2,5-dihydro-3H-pyrazolo[4,3-c]quinolin-3-one]: at DOR, the “Interaction with DOR” value is “weakly interacted”.

Regarding `COc1ccc2c3nn(-c4ccc(OC)nc4)c(=O)c-3c[nH]c2c1` [Compound 13a, 7-Methoxy-2-(6-methoxypyridin-3-yl)-2,5-dihydro-3H-pyrazolo[4,3-c]quinolin-3-one], the “Increase in half-life (MLM) relative to parent ligand” value in data set [4] was “slightly decreased half-life”. In addition, the “Activity at Muscarinic M4” value on Muscarinic M4 is “showed activity”. For the same compound, the “Increase in water solubility” value in the data set “Solubility assay” was “about 3 fold”.

In the case of `COc1ccc(-n2nc3c4cc(Cl)ccc4[nH]cc-3c2=O)cc1` [Compound 8k, 8-Chloro-2-(4-methoxyphenyl)-2,5-dihydro-3H-pyrazolo[4,3-c]quinolin-3-one], the “α6β3γ2 efficacy relative to 8a and 8n” value on GABAAR α6β3γ2 subtype [6] is given as “three times higher”.
